Measurements from patent US7135466B2 (Kirin Beer Kabushiki Kaisha, priority 1999, dated 2006).
pIC50: −log10 of the molar value. Like-named read-outs stand apart in the source and are kept apart here.

Assays:
[1] = target: T1, c-kit (Homo sapiens, UniProt P10721); assay: Inhibitory activity against c-kit autophosphorylation (MO7e cells, h-SCF); type: cell-based; settings: for pIC50: MO7e cells, read-out: c-kit IC50; for inhibition at 1 µM: Mo7e, figure in parentheses in −( )
T1 construct: MO7e (human megakaryocytic leukemia cell line) which had been arrested for 20 hr; endogenous in cells; host or cells: MO7e human megakaryocytic leukemia cell line
T1 sequence (P10721 26-976): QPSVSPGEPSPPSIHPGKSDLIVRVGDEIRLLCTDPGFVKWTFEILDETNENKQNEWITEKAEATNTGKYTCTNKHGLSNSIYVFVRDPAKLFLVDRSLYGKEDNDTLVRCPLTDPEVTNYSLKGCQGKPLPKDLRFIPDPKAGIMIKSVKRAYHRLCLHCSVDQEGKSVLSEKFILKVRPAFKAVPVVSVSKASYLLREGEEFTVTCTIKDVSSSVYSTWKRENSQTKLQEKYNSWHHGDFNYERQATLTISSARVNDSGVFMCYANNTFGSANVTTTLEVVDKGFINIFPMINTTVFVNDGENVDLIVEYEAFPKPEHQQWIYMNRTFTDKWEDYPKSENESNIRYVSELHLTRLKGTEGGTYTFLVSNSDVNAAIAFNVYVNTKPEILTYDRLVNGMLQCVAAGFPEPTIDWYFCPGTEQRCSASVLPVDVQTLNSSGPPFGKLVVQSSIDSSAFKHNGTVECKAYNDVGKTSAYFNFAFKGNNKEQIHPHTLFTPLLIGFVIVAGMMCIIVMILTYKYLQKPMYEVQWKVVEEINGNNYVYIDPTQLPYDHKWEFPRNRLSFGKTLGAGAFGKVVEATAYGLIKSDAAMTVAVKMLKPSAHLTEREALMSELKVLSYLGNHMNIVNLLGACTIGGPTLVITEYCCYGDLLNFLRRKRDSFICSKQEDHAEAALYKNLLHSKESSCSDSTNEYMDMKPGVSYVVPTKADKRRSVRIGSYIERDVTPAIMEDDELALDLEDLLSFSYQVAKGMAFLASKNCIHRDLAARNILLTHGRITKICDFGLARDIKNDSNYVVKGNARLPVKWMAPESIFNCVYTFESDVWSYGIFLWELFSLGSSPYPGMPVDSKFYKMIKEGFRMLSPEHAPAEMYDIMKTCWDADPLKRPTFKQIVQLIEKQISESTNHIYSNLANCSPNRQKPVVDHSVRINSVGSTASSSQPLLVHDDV
Outline: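 Ligand-induced c-kit tyrosine phosphorylation is measured in MO7e cells that were quiesced 20 hr and preincubated with compound for 1 hr prior to a 5 min pulse of 50 ng/ml human SCF. Phospho-c-kit is detected by anti-phosphotyrosine capture ELISA, A450.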

[2] = target: T2, PDGF-Ra (Homo sapiens, UniProt P16234); assay: Inhibitory activity against PDGF-Ra phosphorylation by PDGF-AA stimulation using G292; type: cell-based; settings: for pIC50: > means inhibition at indicated concentration not more than 50%, < and << not less than 50%, read-out: PDGF (E) IC50
T2 construct: host or cells: G-292 human osteosarcoma cells
T2 sequence (P16234 24-1089): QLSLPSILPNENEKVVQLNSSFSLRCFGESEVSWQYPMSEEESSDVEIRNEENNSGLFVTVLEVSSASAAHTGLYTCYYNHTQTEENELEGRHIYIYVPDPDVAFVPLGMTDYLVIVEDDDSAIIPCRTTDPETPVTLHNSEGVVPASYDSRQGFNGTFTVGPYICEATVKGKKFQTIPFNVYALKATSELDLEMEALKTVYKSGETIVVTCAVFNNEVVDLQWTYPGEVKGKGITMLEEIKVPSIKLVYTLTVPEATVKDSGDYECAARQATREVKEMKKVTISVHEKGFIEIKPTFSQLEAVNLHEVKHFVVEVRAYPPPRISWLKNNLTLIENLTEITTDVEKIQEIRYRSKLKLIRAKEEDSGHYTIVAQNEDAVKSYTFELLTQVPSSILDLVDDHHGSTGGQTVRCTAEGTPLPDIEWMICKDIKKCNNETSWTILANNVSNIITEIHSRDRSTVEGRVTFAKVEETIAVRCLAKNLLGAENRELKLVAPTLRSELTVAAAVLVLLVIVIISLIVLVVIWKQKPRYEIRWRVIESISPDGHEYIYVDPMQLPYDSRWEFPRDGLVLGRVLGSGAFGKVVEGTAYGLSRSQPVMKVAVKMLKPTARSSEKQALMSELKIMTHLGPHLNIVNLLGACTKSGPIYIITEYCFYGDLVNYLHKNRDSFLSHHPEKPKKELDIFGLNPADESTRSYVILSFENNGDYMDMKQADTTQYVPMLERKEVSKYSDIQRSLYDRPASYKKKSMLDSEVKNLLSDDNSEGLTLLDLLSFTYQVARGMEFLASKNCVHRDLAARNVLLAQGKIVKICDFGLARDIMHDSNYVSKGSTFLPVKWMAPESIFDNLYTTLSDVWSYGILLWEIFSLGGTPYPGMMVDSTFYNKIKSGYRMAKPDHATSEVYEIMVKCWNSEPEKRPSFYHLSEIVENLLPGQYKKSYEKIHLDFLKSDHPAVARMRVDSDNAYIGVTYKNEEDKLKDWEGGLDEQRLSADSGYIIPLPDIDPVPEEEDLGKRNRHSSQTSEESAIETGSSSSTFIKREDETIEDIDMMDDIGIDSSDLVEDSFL
Outline: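 G-292 human osteosarcoma cells, serum-starved overnight in 0.1% FBS, were pretreated with compound in DMSO for 1 hr at 37 °C, then stimulated with 50 ng/ml PDGF-AA for 5 min. Lysates were captured on anti-phosphotyrosine PY-20 plates and probed with anti-PDGF-Ra plus HRP secondary; absorbance read at 450 nm.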

pIC50 ([1]; h-SCF stimulation)	pIC50 [2]	Compound	further results
7.38	> 8.00	COc1cc2ncnc(Oc3ccc(NC(=S)NC(=O)Cc4ccccc4)cc3)c2cc1OC [Example 1148, N-{4-[(6,7-Dimethoxy-4-quinazolinyl)oxy]phenyl}-N′-(2-phenylacetyl)thiourea]	–
6.82	7.37	CCN(C(=S)NC(=O)Cc1ccccc1)c1ccc(Oc2ccnc3cc(OC)c(OC)cc23)cc1 [Example 1149, N-{4-[(6,7-Dimethoxy-4-quinolyl)oxy]phenyl}-N-ethyl-N′-(2-phenylacetyl)thiourea]	–
6.72	7.29	COc1cc2ncnc(Oc3ccc(N)c(N4CCOCC4)c3)c2cc1OC [Example 1150]	–
6.84	> 8.00	COc1cc2ncnc(Oc3ccc(NC(=S)NC(=O)c4ccccc4C)c(N4CCOCC4)c3)c2cc1OC [Example 1151, N-{4-[(6,7-Dimethoxy-4-quinazolinyl)oxy]-2-morpholinophenyl}-N′-(2-methylbenzoyl)thiourea]	–
–	7.37	COc1cc2nccc(Oc3ccc(NC(=S)NC(=O)c4ccc(CN5CCOCC5)cc4)cc3)c2cc1OC [Example 1153, N-{4-[(6,7-Dimethoxy-4-quinolyl)oxy]phenyl}-N′-[4-(morpholinomethyl)benzoyl]thiourea]	inhibition at 1 µM ([1]; at 1000 nM): 13%
–	7.31	COc1cc2ncnc(Oc3ccc(NC(=S)NC(=O)c4ccc(C)nc4)cc3)c2cc1OC [Example 1154, N-{4-[(6,7-Dimethoxy-4-quinazolinyl)oxy]phenyl}-N′-[(6-methyl-3-pyridyl)carbonyl]thiourea]	inhibition at 1 µM ([1]; at 1000 nM): 21%
–	7.77	COc1cc2ncnc(Oc3ccc(NC(=S)NC(=O)c4ccncc4)cc3)c2cc1OC [Example 1155, N-{4-[(6,7-Dimethoxy-4-quinazolinyl)oxy]phenyl}-N′-(4-pyridylcarbonyl)thiourea]	inhibition at 1 µM ([1]; at 1000 nM): 31%
–	< 7.00	COc1cc2ncnc(Oc3ccc(NC(=S)NC(=O)c4ccccn4)cc3)c2cc1OC [Example 1156, N-{4-[(6,7-Dimethoxy-4-quinazolinyl)oxy]phenyl}-N′-(2-pyridylcarbonyl)thiourea]	inhibition at 1 µM ([1]; at 1000 nM): 28%; inhibition at 0.1 µM ([2]; G292, figure in parentheses in >100( ), at 100 nM, read-out: PDGF (E) inhibition (%) at 100 nM): 35%
6.49	7.85	COc1cc2nccc(Oc3ccc(NC(=S)NC(=O)C4CCCCC4)cc3Cl)c2cc1OC [Example 1179, N-{3-Chloro-4-[(6,7-dimethoxy-4-quinolyl)oxy]phenyl}-N′-cyclohexylcarbonylthiourea]	–
6.32	> 8.00	COc1cc2ncnc(Oc3ccc(NC(=S)NC(=O)C4CCCCC4)cc3)c2cc1OC [Example 1180, N-Cyclohexylcarbonyl-N′-{4-[(6,7-dimethoxy-4-quinazolinyl)oxy]phenyl}thiourea]	–
–	7.46	COc1cc2ncnc(Oc3ccc(NC(=S)NC(=O)C4CC4)cc3)c2cc1OC [Example 1181, N-Cyclopropylcarbonyl-N′-{4-[(6,7-dimethoxy-4-quinazolinyl)oxy]phenyl}thiourea]	inhibition at 1 µM ([1]; at 1000 nM): 26%
6.69	> 8.00	COc1cc2nccc(Oc3ccc(NC(=S)NC(=O)C4CCCC4)cc3Cl)c2cc1OC [Example 1182, N-{3-Chloro-4-[(6,7-dimethoxy-4-quinolyl)oxy]phenyl}-N′-cyclopentylcarbonylthiourea]	–
6.37	> 8.00	COc1cc2ncnc(Oc3ccc(NC(=S)NC(=O)C4CCCC4)cc3)c2cc1OC [Example 1183, N-Cyclopentylcarbonyl-N′-{4-[(6,7-dimethoxy-4-quinazolinyl)oxy]phenyl}thiourea]	–
–	7.89	COc1cc2ncnc(Oc3ccc(NC(=S)NC(=O)CCc4cccc(C)c4)cc3)c2cc1OC [Example 1185, N-{4-[(6,7-Dimethoxy-4-quinazolinyl)oxy]phenyl}-N′-[3-(3-methylphenyl)propanoyl]thiourea]	inhibition at 1 µM ([1]; at 1000 nM): 26%
6.39	> 8.00	COc1cc2ncnc(Oc3ccc(NC(=S)NC(=O)CCCCl)cc3)c2cc1OC [Example 1186, N-(4-Chlorobutanoyl)-N′-{4-[(6,7-dimethoxy-4-quinazolinyl)oxy]phenyl}thiourea]	–
7.14	7.59	CCCCCC(=O)NC(=S)Nc1ccc(Oc2ncnc3cc(OC)c(OC)cc23)cc1 [Example 1189, N-{4-[(6,7-Dimethoxy-4-quinazolinyl)oxy]phenyl}-N′-hexanoylthiourea]	–

pIC50 ([1]; h-SCF stimulation)	pIC50 [2]	Compound	further results
6.62	7.62	COc1cc2nccc(Oc3ccc(NC(=S)NC(=O)C4CC4C)cc3Cl)c2cc1OC (centres unmarked) [Example 1190, N-{3-Chloro-4-[(6,7-dimethoxy-4-quinolyl)oxy]phenyl}-N′-[(2-methylcyclopropyl)carbonyl]thiourea]	–
6.71	7.51	COc1cc2ncnc(Oc3ccc(NC(=S)NC(=O)C4CC4C)cc3)c2cc1OC (centres unmarked) [Example 1191, N-{4-[(6,7-Dimethoxy-4-quinazolinyl)oxy]phenyl}-N′-[(2-methylcyclopropyl)carbonyl]thiourea]	–
6.17	7.72	COc1cc2nccc(Oc3ccc(NC(=S)NC(=O)C4(C)CCCCC4)cc3Cl)c2cc1OC [Example 1192, N-{3-Chloro-4-[(6,7-dimethoxy-4-quinolyl)oxy]phenyl}-N′-[(1-methylcyclohexyl)carbonyl]thiourea]	–
–	> 8.00	COc1cc2ncnc(Oc3ccc(NC(=S)NC(=O)C4(C)CCCCC4)cc3)c2cc1OC [Example 1193, N-{4-[(6,7-Dimethoxy-4-quinazolinyl)oxy]phenyl}-N′-[(1-methylcyclohexyl)carbonyl]thiourea]	inhibition at 1 µM ([1]; at 1000 nM): 18%
6.28	7.68	COc1cc2ncnc(Oc3ccc(NC(=S)NC(=O)C4(c5ccccc5)CC4)cc3)c2cc1OC [Example 1195, N-{4-[(6,7-Dimethoxy-4-quinazolinyl)oxy]phenyl}-N′-[(1-phenylcyclopropyl)carbonyl]thiourea]	–
6.15	< 7.00	CCCC1CCC(C(=O)NC(=S)Nc2ccc(Oc3ccnc4cc(OC)c(OC)cc34)c(Cl)c2)CC1 (centres unmarked) [Example 1196, N-{3-Chloro-4-[(6,7-dimethoxy-4-quinolyl)oxy]phenyl}-N′-[(4-propylcyclohexyl)carbonyl]thiourea]	–
6.66	7.60	CCCC1CCC(C(=O)NC(=S)Nc2ccc(Oc3ncnc4cc(OC)c(OC)cc34)cc2)CC1 (centres unmarked) [Example 1197, N-{4-[(6,7-Dimethoxy-4-quinazolinyl)oxy]phenyl}-N′-[(4-propylcyclohexyl)carbonyl]thiourea]	–
6.61	> 8.00	COc1cc2nccc(Oc3ccc(NC(=S)NC(=O)CCCCl)cc3Cl)c2cc1OC [Example 1198, N-(4-Chlorobutanoyl)-N′-{3-chloro-4-[(6,7-dimethoxy-4-quinolyl)oxy]phenyl}thiourea]	–
6.15	7.60	CCCC(C)C(=O)NC(=S)Nc1ccc(Oc2ccnc3cc(OC)c(OC)cc23)c(Cl)c1 (centres unmarked) [Example 1200, N-{3-Chloro-4-[(6,7-dimethoxy-4-quinolyl)oxy]phenyl}-N′-(2-methylpentanoyl)thiourea]	–
6.35	> 8.00	CCCC(C)C(=O)NC(=S)Nc1ccc(Oc2ncnc3cc(OC)c(OC)cc23)cc1 (centres unmarked) [Example 1201, N-{4-[(6,7-Dimethoxy-4-quinazolinyl)oxy]phenyl}-N′-(2-methylpentanoyl)thiourea]	–
–	7.30	COc1cc2nccc(Oc3ccc(NC(=S)NC(=O)c4ccc(F)cc4F)c(Cl)c3)c2cc1OC [Example 1202, N-{2-Chloro-4-[(6,7-dimethoxy-4-quinolyl)oxy]phenyl}-N′-(2,4-difluorobenzoyl)thiourea]	inhibition at 1 µM ([1]; at 1000 nM): 15%
6.36	7.74	COc1ccc(C(=O)NC(=S)Nc2ccc(Oc3ccnc4cc(OC)c(OC)cc34)c(Cl)c2)cc1OC [Example 1204, N-{3-Chloro-4-[(6,7-dimethoxy-4-quinolyl)oxy]phenyl}-N′-(3,4-dimethoxybenzoyl)thiourea]	–
–	7.34	N-{4-[(6,7-Dimethoxy-4-quinolyl)oxy]-2-chlorophenyl}-N′-(1-piperidinyl)urea [Example 595]	c-kit inhibition (%) at 1000 nM ([1]; figure within parentheses in −( ) or >1000( ), at 1000 nM): −(0) %
–	7.51	N-{4-[(6,7-Dimethoxy-4-quinolyl)oxy]-2-chlorophenyl}-N′-[4-(N-benzyl)piperidinyl]urea [Example 605]	pIC50 ([1]; 50 ng/ml h-SCF): 6.40
–	> 8.00	N-{4-[(6,7-Dimethoxy-4-quinolyl)oxy]-2-methoxyphenyl}-N′-(1-homopiperidinyl)urea [Example 600]	pIC50 ([1]; 50 ng/ml h-SCF): 6.68

Compound	pIC50 ([1]; h-SCF stimulation)	pIC50 [2]	further results
N-{4-[(6,7-Dimethoxy-4-quinolyl)oxy]-2,3-dimethylphenyl}-N′-[3-(1-piperidinyl)propyl]thiourea [Example 558]	–	7.14	pIC50 ([1]; 50 ng/ml h-SCF): 6.14
